Legend:
Assay type in all cases: functional
[1] = test system: Leptinotarsa decemlineata; assay: Insecticidal activity against second-instar larval stage of Leptinotarsa decemlineata infested potato leaves assessed as mortality at 20 ul after 96 hr (reference value: 3.3 +/- 3.3%)
[2] = test system: Leptinotarsa decemlineata; assay: Insecticidal activity against second-instar larval stage of Leptinotarsa decemlineata infested potato leaves assessed as mortality at 20 ul after 48 hr (reference value: 3.3 +/- 3.3%)
[3] = test system: Leptinotarsa decemlineata; assay: Insecticidal activity against second-instar larval stage of Leptinotarsa decemlineata infested potato leaves assessed as mortality at 20 ul after 24 hr (reference value: 3.3 +/- 3.3%)
[4] = test system: Leptinotarsa decemlineata; assay: Insecticidal activity against second-instar larval stage of Leptinotarsa decemlineata infested potato leaves assessed as mortality at 10 ul after 12 hr relative to control
[5] = test system: Leptinotarsa decemlineata; assay: Insecticidal activity against adult Leptinotarsa decemlineata infested potato leaves assessed as mortality at 20 ul after 96 hr relative to control
[6] = test system: Leptinotarsa decemlineata; assay: Insecticidal activity against adult Leptinotarsa decemlineata infested potato leaves assessed as mortality at 20 ul after 48 hr relative to control
[7] = test system: Leptinotarsa decemlineata; assay: Insecticidal activity against adult Leptinotarsa decemlineata infested potato leaves assessed as mortality at 20 ul after 24 hr relative to control
[8] = test system: Leptinotarsa decemlineata; assay: Insecticidal activity against adult Leptinotarsa decemlineata infested potato leaves assessed as mortality at 20 ul after 12 hr relative to control
[9] = test system: Leptinotarsa decemlineata; assay: Insecticidal activity against adult Leptinotarsa decemlineata infested potato leaves assessed as mortality at 10 ul after 96 hr relative to control
[10] = test system: Leptinotarsa decemlineata; assay: Insecticidal activity against adult Leptinotarsa decemlineata infested potato leaves assessed as mortality at 10 ul after 48 hr relative to control
[11] = test system: Leptinotarsa decemlineata; assay: Insecticidal activity against adult Leptinotarsa decemlineata infested potato leaves assessed as mortality at 10 ul after 24 hr relative to control
[12] = test system: Leptinotarsa decemlineata; assay: Insecticidal activity against adult Leptinotarsa decemlineata infested potato leaves assessed as mortality at 10 ul after 12 hr relative to control
[13] = test system: Leptinotarsa decemlineata; assay: Insecticidal activity against second-instar larval stage of Leptinotarsa decemlineata infested potato leaves assessed as mortality at 20 ul after 12 hr relative to control
[14] = test system: Leptinotarsa decemlineata; assay: Insecticidal activity against second-instar larval stage of Leptinotarsa decemlineata infested potato leaves assessed as mortality at 10 ul after 96 hr (reference value: 3.3 +/- 3.3%)
[15] = test system: Leptinotarsa decemlineata; assay: Insecticidal activity against second-instar larval stage of Leptinotarsa decemlineata infested potato leaves assessed as mortality at 10 ul after 48 hr (reference value: 3.3 +/- 3.3%)
[16] = test system: Leptinotarsa decemlineata; assay: Insecticidal activity against second-instar larval stage of Leptinotarsa decemlineata infested potato leaves assessed as mortality at 10 ul after 24 hr (reference value: 3.3 +/- 3.3%)
[17] = test system: Leptinotarsa decemlineata; assay: Insecticidal activity against first-instar larval stage of Leptinotarsa decemlineata infested potato leaves assessed as mortality at 20 ul after 96 hr relative to control
[18] = test system: Leptinotarsa decemlineata; assay: Insecticidal activity against first-instar larval stage of Leptinotarsa decemlineata infested potato leaves assessed as mortality at 20 ul after 48 hr relative to control
[19] = test system: Leptinotarsa decemlineata; assay: Insecticidal activity against first-instar larval stage of Leptinotarsa decemlineata infested potato leaves assessed as mortality at 20 ul after 24 hr relative to control
[20] = test system: Leptinotarsa decemlineata; assay: Insecticidal activity against first-instar larval stage of Leptinotarsa decemlineata infested potato leaves assessed as mortality at 20 ul after 12 hr relative to control
[21] = test system: Leptinotarsa decemlineata; assay: Insecticidal activity against first-instar larval stage of Leptinotarsa decemlineata infested potato leaves assessed as mortality at 10 ul after 96 hr relative to control
[22] = test system: Leptinotarsa decemlineata; assay: Insecticidal activity against first-instar larval stage of Leptinotarsa decemlineata infested potato leaves assessed as mortality at 10 ul after 48 hr relative to control
[23] = test system: Leptinotarsa decemlineata; assay: Insecticidal activity against first-instar larval stage of Leptinotarsa decemlineata infested potato leaves assessed as mortality at 10 ul after 12 hr relative to control
[24] = test system: Leptinotarsa decemlineata; assay: Insecticidal activity against first-instar larval stage of Leptinotarsa decemlineata infested potato leaves assessed as mortality at 10 ul after 24 hr relative to control
[25] = test system: Leptinotarsa decemlineata; assay: Insecticidal activity against third-instar larval stage of Leptinotarsa decemlineata infested potato leaves assessed as mortality at 20 ul after 96 hr (reference value: 3.3 +/- 3.3%)
[26] = test system: Leptinotarsa decemlineata; assay: Insecticidal activity against third-instar larval stage of Leptinotarsa decemlineata infested potato leaves assessed as mortality at 20 ul after 48 hr (reference value: 3.3 +/- 3.3%)
[27] = test system: Leptinotarsa decemlineata; assay: Insecticidal activity against third-instar larval stage of Leptinotarsa decemlineata infested potato leaves assessed as mortality at 20 ul after 24 hr relative to control
[28] = test system: Leptinotarsa decemlineata; assay: Insecticidal activity against third-instar larval stage of Leptinotarsa decemlineata infested potato leaves assessed as mortality at 20 ul after 12 hr relative to control
[29] = test system: Leptinotarsa decemlineata; assay: Insecticidal activity against third-instar larval stage of Leptinotarsa decemlineata infested potato leaves assessed as mortality at 10 ul after 96 hr (reference value: 3.3 +/- 3.3%)
[30] = test system: Leptinotarsa decemlineata; assay: Insecticidal activity against third-instar larval stage of Leptinotarsa decemlineata infested potato leaves assessed as mortality at 10 ul after 48 hr (reference value: 3.3 +/- 3.3%)
[31] = test system: Leptinotarsa decemlineata; assay: Insecticidal activity against third-instar larval stage of Leptinotarsa decemlineata infested potato leaves assessed as mortality at 10 ul after 24 hr relative to control
[32] = test system: Leptinotarsa decemlineata; assay: Insecticidal activity against third-instar larval stage of Leptinotarsa decemlineata infested potato leaves assessed as mortality at 10 ul after 12 hr relative to control

| SMILES | mortality [1] [%] | mortality [2] [%] | mortality [3] [%] | mortality [4] [%] | mortality [5] [%] | mortality [6] [%] | mortality [7] [%] | mortality [8] [%] | mortality [9] [%] | mortality [10] [%] | mortality [11] [%] | mortality [12] [%] | mortality [13] [%] | mortality [14] [%] | mortality [15] [%] | mortality [16] [%] | mortality [17] [%] | mortality [18] [%] | mortality [19] [%] | mortality [20] [%] | also measured |
| --- | --- | --- | --- | --- | --- | --- | --- | --- | --- | --- | --- | --- | --- | --- | --- | --- | --- | --- | --- | --- | --- |
| C=CC(C)CCC=C(C)C (stereo not drawn) [BETA-CITRONELLENE] | 100 | 100 | 100 | 43.3 | 90 | 83.3 | 76.7 | 53.3 | 76.7 | 73.3 | 73.3 | 40 | 66.7 | 100 | 100 | 96.7 | 100 | 100 | 100 | 76.7 | mortality [21]: 100%; mortality [22]: 100%; mortality [23]: 30%; mortality [24]: 86.7%; mortality [25]: 93.3%; mortality [26]: 93.3%; mortality [27]: 80%; mortality [28]: 50%; mortality [29]: 100%; mortality [30]: 100%; mortality [31]: 93.3%; mortality [32]: 80% |
| CC(=O)OC/C=C(/C)CCC=C(C)C [NERYL ACETATE] | 6.7 | 3.3 | 3.3 | 0 | 30 | 13.3 | 10 | 3.3 | 70 | 26.7 | 20 | 0 | 3.3 | 0 | 0 | 0 | 10 | 10 | 10 | 6.7 | mortality [21]: 0%; mortality [22]: 0%; mortality [23]: 0%; mortality [24]: 0%; mortality [25]: 43.3%; mortality [26]: 33.3%; mortality [27]: 23.3%; mortality [28]: 23.3%; mortality [29]: 10%; mortality [30]: 6.7%; mortality [31]: 0%; mortality [32]: 0% |
| C=C(C)[C@@H]1CC[C@@H](C)C(=O)C1 [DIHYDROCARVONE] | 100 | 86.7 | 83.3 | 23.3 | 80 | 63.3 | 23.3 | 0 | 63.3 | 53.3 | 30 | 6.7 | 36.7 | 83.3 | 76.7 | 63.3 | 80 | 70 | 50 | 26.7 | mortality [21]: 40%; mortality [22]: 33.3%; mortality [23]: 0%; mortality [24]: 33.3%; mortality [25]: 76.7%; mortality [26]: 60%; mortality [27]: 46.7%; mortality [28]: 16.7%; mortality [29]: 23.3%; mortality [30]: 16.7%; mortality [31]: 16.7%; mortality [32]: 0% |
| C=CC(C)(O)CCC=C(C)C (centres undefined) [LINALOOL] | 100 | 100 | 93.3 | 20 | 100 | 100 | 73.3 | 30 | 90 | 83.3 | 73.3 | 16.7 | 36.7 | 100 | 76.7 | 73.3 | 100 | 100 | 93.3 | 40 | mortality [21]: 100%; mortality [22]: 63.3%; mortality [23]: 26.7%; mortality [24]: 53.3%; mortality [25]: 40%; mortality [26]: 36.7%; mortality [27]: 33.3%; mortality [28]: 6.7%; mortality [29]: 23.3%; mortality [30]: 20%; mortality [31]: 13.3%; mortality [32]: 3.3% |
| CC1=CCC2C(C1)C2(C)C (centres undefined) [CARENE] | 93.3 | 93.3 | 86.7 | 46.7 | 86.7 | 86.7 | 80 | 50 | 80 | 80 | 73.3 | 36.7 | 76.7 | 100 | 100 | 73.3 | 86.7 | 86.7 | 70 | 56.7 | mortality [21]: 100%; mortality [22]: 86.7%; mortality [23]: 36.7%; mortality [24]: 63.3%; mortality [25]: 100%; mortality [26]: 100%; mortality [27]: 100%; mortality [28]: 100%; mortality [29]: 100%; mortality [30]: 100%; mortality [31]: 100%; mortality [32]: 100% |
| C=C(C)C1CC=C(C)C(=O)C1 (centres undefined) [CARVONE] | 90 | 86.7 | 83.3 | 33.3 | 100 | 100 | 36.7 | 3.3 | 93.3 | 66.7 | 26.7 | 0 | 53.3 | 63.3 | 63.3 | 53.3 | 56.7 | 43.3 | 30 | 10 | mortality [21]: 63.3%; mortality [22]: 43.3%; mortality [23]: 16.7%; mortality [24]: 43.3%; mortality [25]: 90%; mortality [26]: 90%; mortality [27]: 86.7%; mortality [28]: 23.3%; mortality [29]: 16.7%; mortality [30]: 13.3%; mortality [31]: 13.3%; mortality [32]: 6.7% |
| C=C(C)C1CCC2(C)OC2C1 (centres undefined) [LIMONENE OXIDE] | 96.7 | 93.3 | 93.3 | 30 | 56.7 | 40 | 20 | 16.7 | 30 | 20 | 16.7 | 10 | 60 | 90 | 83.3 | 73.3 | 100 | 100 | 93.3 | 70 | mortality [21]: 93.3%; mortality [22]: 80%; mortality [23]: 26.7%; mortality [24]: 53.3%; mortality [25]: 56.7%; mortality [26]: 46.7%; mortality [27]: 33.3%; mortality [28]: 13.3%; mortality [29]: 46.7%; mortality [30]: 43.3%; mortality [31]: 23.3%; mortality [32]: 13.3% |

— ChEMBL document CHEMBL3046407, “Toxicity of monoterpenes against larvae and adults of Colorado potato beetle, Leptinotarsa decemlineata Say (Coleoptera: Chrysomelidae)” (2007)
